Experimental findings from US20230142274A1 (SIMCERE PHARMACEUTICAL CO., LTD., priority 2020, published 2023) are described below.

By half-life is commonly meant how long it takes for the measured level to halve. Low values mean rapid decline, high ones slow decline.

What all share (type): in vitro ADME
Series [1] in a line: Metabolic stability in liver microsomes (human). Conditions: pH 7.4; Human being liver microsomes 0.5 mg/mL, compound 1 μM, NADPH 1 mM, 37° C. The procedure: (§1) 1. Source of liver microsomes: human liver microsomes (Corning 452117), CD-1 mouse liver microsomes (XENOTECH M1000)
(§2) 1. Formulation of 100 mM phosphate buffer solution (PBS): 7.098 g of Na2HPO4 was weighed and ultrasonically dissolved in 500 mL of pure water to form Solution A. 3.400 g of KH2PO4 was weighed and ultrasonically dissolved in 250 mL of pure water to form Solution B. Solution A was placed in a stirrer and Solution B was slowly added until the pH value reached 7.4, thus formulating 100 mM PBS buffer solution.
(§3) The reaction system was formulated according to Table 3 below.
(§4) 3. The reaction system was placed in a water bath at 37° C. and pre-incubated for 10 minutes. 40 μL of 10 mM NADPH solution (NADPH was dissolved in 100 mM phosphate buffer solution) was added into the reaction system, and the final concentration of NADPH was 1 mM. 40 μL of Phosphate buffer solution was used instead of the NADPH solution as a negative control. The negative control was used to rule out the influence caused by the chemical stability of the compounds per se.
(§5) 4. The reaction system was added with 4 μL of 100 μM the compound of the present disclosure and Verapamil (the positive control compound) (DMSO as the vehicle), so that the reaction was initiated. The final concentration of the compound was 1 μM.
(§6) 5. At 0.5, 15, 30, 45 and 60 minutes, after being well mixed in a vortex oscillator, 50 μL of the incubated samples were taken out respectively, and the reaction was terminated with ice acetonitrile (4-fold) containing an internal standard. The samples were centrifuged at 3220 g for 45 minutes. After the centrifugation, 90 μL of the supernatants were transferred to a sample plate and mixed well with 90 μL of ultrapure water for LC-MS/MS analysis.
(§7) All data were calculated by Microsoft Excel software. Peak areas were determined from the extracted ion chromatograms. The in-vitro half-life (t1/2) of the parent drug was determined by the linear fitting of the natural logarithm of the elimination percentage of the parent drug versus time.
(§8) The in-vitro half-life (t1/2) was calculated from the slope: […]
A general note: Liver microsomes are a subcellular fraction often used to study metabolism.

The test system of series [2] is CD-1 mouse plasma. The experiment in a line: Plasma protein binding rate assay (equilibrium dialysis). Conditions: compound 1 μM, equilibrium dialysis 6 hours at 37° C. The procedure: 1. CD-1 mouse plasma (BioIVT)
1. Formulation of a buffer solution containing 100 mM sodium phosphate and 150 mM NaCl: An alkaline solution containing Na2HPO4 (14.2 g/L) and NaCl (8.77 g/L) was formulated with ultrapure water. An acidic solution containing NaH2PO4 (12.0 g/L) and NaCl (8.77 g/L) was formulated with ultrapure water. The alkaline solution was titrated with the acidic solution until the pH value was 7.4, thus formulating the buffer solution containing 100 mM sodium phosphate and 150 mM NaCl.
2. Preparation of dialysis membrane: The dialysis membrane was immersed in ultrapure water for 60 minutes to separate the membrane into two pieces, then immersed in 20% ethanol for 20 minutes, and finally immersed in a buffer for dialysis for 20 minutes.
3. Preparation of plasma: Frozen plasma was thawed rapidly at room temperature. Thereafter, the plasma was centrifuged at 3220 g for 10 minutes at 4° C. to remove clots, and the supernatant was collected into a new centrifuge tube. The pH values of plasma were measured and recorded. The plasma with a pH value of 7 to 8 was used.
4. Formulation of compound-containing plasma samples: A 10 mM stock solution of the compound of the present disclosure or the positive control compound was diluted with DMSO to obtain a 200 μM working solution. 3 μl of the 200 μM working solution of the compound was added into 597 μl of mouse plasma to obtain a plasma sample with a final concentration of 1 μM.
5. Steps of equilibrium dialysis: The dialysis device was assembled according to the operating instructions. 120 μL of a plasma sample containing 1 μM compound was added on one side of the dialysis membrane, and an equal volume of dialysate (phosphate buffer solution) was added on the other side. Duplicate samples were set in the experiment. The dialysis plate was sealed and placed in an incubation device where the samples were incubated at 37° C. in an atmosphere containing 5% CO2 for 6 hours with a rotational speed of about 100 rpm. After the incubation was complete, the sealing membrane was removed. 50 μl of samples were respectively aspirated from the buffer solution side and the plasma side of each well and transferred into different wells of a new plate. 50 μl of blank plasma was added into the sample obtained from the phosphate buffer solution side, and an equal volume of blank phosphate buffer solution was added into the plasma sample, followed by the addition of 300 μl of acetonitrile containing the internal standard to precipitate protein. The sample was vortexed for 5 minutes and centrifuged at 3220 g for 30 minutes at 4° C. 100 μl of the supernatant was aspirated and transferred to the sample plate, mixed well with 100 μL of ultrapure water, and used for LC-MS/MS analysis.
The peak areas of the compounds on the buffer solution side and the plasma side were determined. The formula for calculating the plasma protein binding rate of the compound was as follows:
% Free rate=(the ratio of the peak area of the compound to the peak area of the internal standard on the buffer solution side/the ratio of the peak area of the compound to the peak area of the internal standard on the plasma side)×100
% Binding rate=100−% free rate

Series [3] can be described thus: Metabolic stability in liver microsomes (CD-1 mouse). The note with it: pH 7.4; CD-1 mouse liver microsomes 0.5 mg/mL, compound 1 μM, NADPH 1 mM, 37° C. The procedure: as §1, §2, §3, §4, §5, §6, §7, §8

Consider `CC(C)OC(=O)N[C@H]1CC[C@H](c2ncc(-c3ccc(Nc4n[nH]c5ccccc45)cc3S(=O)(=O)C3CC3)s2)CC1` [Example 56, isopropyl trans-(4-(5-(4-((1H-indazol-3-yl)amino)-2-(cyclopropylsulfonyl)phenyl)thiazol-2-yl)cyclohexyl)carbamate], for which the half-life at 1 μM in series [1] was determined as 2.98 h; in series [3] it was 1.82 h. Moreover, the “% Binding Rate” value in series [2] is listed as 97%.
Take `Cc1cc(Nc2ccc(-c3cnc(C4CCC(NC(=O)OC(C)C)CC4)s3)c(S(=N)(=O)C3CC3)c2)n[nH]1` (stereo not drawn) [Example 50, isopropyl trans-N-[4-[5-[2-(cyclopropylsulfonimidoyl)-4-]((5-methyl-1H-pyrazol-3-yl)amino]phenyl]thiazol-2-yl]cyclohexyl]carbamate]: the half-life at 1 μM in series [1] is 7.92 h; in series [3], 6.27 h. For the same compound, the “% Binding Rate” value in series [2] is 96%.
For `Cc1cc(Nc2ccc(-c3cnc([C@H]4CC[C@H](NC(=O)OC(C)C)CC4)s3)c(S(=O)(=O)C3CC3)c2)n[nH]1` [Example 48, isopropyl trans-(4-(5-(2-(cyclopropylsulfonyl)-4-((5-methyl-1H-pyrazol-3-yl)amino)phenyl)thiazol-2-yl)cyclohexyl)carbamate], the half-life at 1 μM was more than 8.33 h in series [1] and 7.2 h in series [3]. Further, the “% Binding Rate” value in series [2] amounted to 99%.
For `CC(C)OC(=O)Nc1ccc(-c2cnc(C3CCC(NC(=O)OC(C)C)CC3)s2)c([S+]([O-])C(C)C)c1` (stereo not drawn) [Example 32, isopropyl trans-N-[4-[2-[4-(isopropoxycarbonylamino)cyclohexyl]thiazol-5-yl]-3-isopropylsulfinyl-phenyl]carbamate], the half-life at 1 μM turned out to be 4.18 h in series [1] and 2.7 h in series [3]. Besides, the “% Binding Rate” value in series [2] worked out at 99%.
